Source: ChEMBL document CHEMBL2331534, “Design, synthesis and biological evaluation of novel hybrid compounds of imidazole scaffold-based 2-benzylbenzofuran as potent anticancer agents” (Eur J Med Chem, 2013)

What was measured:
SMMC-7721 [1] = assay: Cytotoxicity against human SMMC7721 cells assessed as growth inhibition after 48 hrs by MTT assay; assay type: functional, cell-based; details: SMMC-7721, 48 h
A549 = assay: Cytotoxicity against human A549 cells assessed as growth inhibition after 48 hrs by MTT assay; assay type: functional, cell-based; details: A549, 48 h
SW480 = assay: Cytotoxicity against human SW480 cells assessed as growth inhibition after 48 hrs by MTT assay; assay type: functional, cell-based; details: SW480, 48 h
HL-60 = assay: Cytotoxicity against human HL60 cells assessed as growth inhibition after 48 hrs by MTT assay; assay type: functional, cell-based; details: HL-60, 48 h
MCF7 [2] = assay: Cytotoxicity against human MCF7 cells assessed as growth inhibition after 48 hrs by MTT assay; assay type: functional, cell-based; details: MCF7, 48 h
SMMC-7721 [3] = assay: Ratio of compound IC50 to DDP IC50 for growth inhibition of human SMMC7721 cells; assay type: functional
MCF7 [4] = assay: Ratio of compound IC50 to DDP IC50 for growth inhibition of human MCF7 cells; assay type: functional

SMILES | IC50 (SMMC-7721 [1]) [µM] | IC50 (A549) [µM] | IC50 (SW480) [µM] | IC50 (HL-60) [µM] | IC50 (MCF7 [2]) [µM] | Ratio IC50 (SMMC-7721 [3]) | Ratio IC50 (MCF7 [4])
CS(=O)(=O)OC(c1ccccc1)c1cc2ccccc2o1 (configuration not stated) | > 40 | > 40 | > 40 | > 40 | > 40 | – | –
O=[N+]([O-])c1ccc(C[n+]2cn(C(c3ccccc3)c3cc4ccccc4o3)c3ccccc32)cc1 (configuration not stated) | 11.5 | > 40 | 14 | 11 | 16.4 | – | –
O=C(C[n+]1ccn(C(c2ccccc2)c2cc3ccccc3o2)c1)c1ccc(F)cc1 (configuration not stated) | > 40 | > 40 | > 40 | > 40 | > 40 | – | –
C=CC[n+]1cn(C(c2ccccc2)c2cc3ccccc3o2)c2ccccc21 (configuration not stated) | > 40 | > 40 | > 40 | > 40 | > 40 | – | –
C=CC[n+]1ccn(C(c2ccccc2)c2cc3ccccc3o2)c1C (configuration not stated) | > 40 | > 40 | > 40 | > 40 | > 40 | – | –
O=C(C[n+]1cn(C(c2ccccc2)c2cc3ccccc3o2)c2ccccc21)c1ccc2ccccc2c1.[Br-] (configuration not stated) | 2.35 | 3.43 | 3.18 | 1.12 | 3.13 | 6.3 | –
Cc1n(C(c2ccccc2)c2cc3ccccc3o2)cc[n+]1CC(=O)c1ccccc1 (configuration not stated) | 14.8 | 18.8 | > 40 | 3.17 | 10.2 | – | –
c1ccc(C(c2cc3ccccc3o2)n2ccnc2)cc1 (configuration not stated) | > 40 | > 40 | > 40 | > 40 | > 40 | – | –
Cc1n(C(c2ccccc2)c2cc3ccccc3o2)cc[n+]1CC(=O)c1ccc(F)cc1 (configuration not stated) | 14.5 | 21.7 | 12.7 | 4.7 | 10.7 | – | –
CCc1n(C(c2ccccc2)c2cc3ccccc3o2)cc[n+]1CC(=O)c1ccc2ccccc2c1 (configuration not stated) | 4.48 | 3.23 | 16.4 | 1.86 | 4.2 | – | –
COc1ccc(C(=O)C[n+]2ccn(C(c3ccccc3)c3cc4ccccc4o3)c2)cc1 (configuration not stated) | 8.47 | 14.6 | 15.4 | 2.99 | 16.1 | – | –
COc1ccc(C(=O)C[n+]2cn(C(c3ccccc3)c3cc4ccccc4o3)c3ccccc32)cc1.[Br-] (configuration not stated) | 3.09 | 3.57 | 3.55 | 1.02 | 2.29 | – | 4.6
O=C(C[n+]1ccn(C(c2ccccc2)c2cc3ccccc3o2)c1)c1ccccc1 (configuration not stated) | > 40 | > 40 | > 40 | > 40 | > 40 | – | –
Cc1n(C(c2ccccc2)c2cc3ccccc3o2)cc[n+]1Cc1ccccc1 (configuration not stated) | > 40 | > 40 | > 40 | > 40 | > 40 | – | –
O=C(C[n+]1cn(C(c2ccccc2)c2cc3ccccc3o2)c2ccccc21)c1ccc(Br)cc1 (configuration not stated) | 3.99 | 4.76 | 3.75 | 2.68 | 3.35 | – | –
CCc1n(C(c2ccccc2)c2cc3ccccc3o2)cc[n+]1CC(=O)c1ccc(O)cc1 (configuration not stated) | > 40 | > 40 | > 40 | > 40 | > 40 | – | –
c1ccc(C[n+]2ccn(C(c3ccccc3)c3cc4ccccc4o3)c2)cc1 (configuration not stated) | > 40 | > 40 | > 40 | > 40 | > 40 | – | –
O=C(C[n+]1ccn(C(c2ccccc2)c2cc3ccccc3o2)c1)c1ccc(Br)cc1 (configuration not stated) | 5.5 | 15.5 | 15.5 | 2.64 | 12 | – | –
Cc1n(C(c2ccccc2)c2cc3ccccc3o2)cc[n+]1CC(=O)c1ccc(O)cc1 (configuration not stated) | > 40 | > 40 | > 40 | > 40 | > 40 | – | –
O=C(C[n+]1ccn(C(c2ccccc2)c2cc3ccccc3o2)c1)c1ccc(O)cc1 (configuration not stated) | > 40 | > 40 | > 40 | > 40 | > 40 | – | –
CCCC[n+]1ccn(C(c2ccccc2)c2cc3ccccc3o2)c1CC (configuration not stated) | > 40 | > 40 | > 40 | > 40 | > 40 | – | –
CCc1n(C(c2ccccc2)c2cc3ccccc3o2)cc[n+]1CC(=O)c1ccc(Br)cc1 (configuration not stated) | 6.14 | 14.1 | 15.5 | 2.94 | 9.5 | – | –

SMILES | IC50 (SMMC-7721 [1]) [µM] | IC50 (A549) [µM] | IC50 (SW480) [µM] | IC50 (HL-60) [µM] | IC50 (MCF7 [2]) [µM] | Ratio IC50 (SMMC-7721 [3]) | Ratio IC50 (MCF7 [4])
CCCC[n+]1ccn(C(c2ccccc2)c2cc3ccccc3o2)c1 (configuration not stated) | > 40 | > 40 | > 40 | > 40 | > 40 | – | –
Cc1nccn1C(c1ccccc1)c1cc2ccccc2o1 (configuration not stated) | > 40 | > 40 | > 40 | > 40 | > 40 | – | –
O=[N+]([O-])c1ccc(C[n+]2ccn(C(c3ccccc3)c3cc4ccccc4o3)c2)cc1 (configuration not stated) | > 40 | > 40 | > 40 | > 40 | > 40 | – | –
C=CC[n+]1ccn(C(c2ccccc2)c2cc3ccccc3o2)c1CC (configuration not stated) | > 40 | > 40 | > 40 | > 40 | > 40 | – | –
CCc1n(C(c2ccccc2)c2cc3ccccc3o2)cc[n+]1CC(=O)c1ccc(OC)cc1 (configuration not stated) | 7.07 | 5.43 | 17.1 | 2.17 | 9.5 | – | –
Cc1n(C(c2ccccc2)c2cc3ccccc3o2)cc[n+]1CC(=O)c1ccc2ccccc2c1 (configuration not stated) | 4.29 | 8.57 | 4.48 | 1.85 | 2.24 | – | –
O=C(C[n+]1ccn(C(c2ccccc2)c2cc3ccccc3o2)c1)c1ccc2ccccc2c1 (configuration not stated) | 3.47 | 7.77 | 14.2 | 1.93 | 3.12 | – | –
c1ccc(C[n+]2cn(C(c3ccccc3)c3cc4ccccc4o3)c3ccccc32)cc1 (configuration not stated) | 3.63 | 6.92 | 6.31 | 1.05 | 9.16 | – | –
O=C(C[n+]1cn(C(c2ccccc2)c2cc3ccccc3o2)c2ccccc21)c1ccc(F)cc1 (configuration not stated) | 3.98 | 9.15 | 13.6 | 2.1 | 12 | – | –
O=C(C[n+]1cn(C(c2ccccc2)c2cc3ccccc3o2)c2ccccc21)c1ccccc1 (configuration not stated) | 5.34 | 14.4 | 15.5 | 2.69 | 9.59 | – | –
C=CC[n+]1ccn(C(c2ccccc2)c2cc3ccccc3o2)c1 (configuration not stated) | > 40 | > 40 | > 40 | > 40 | > 40 | – | –
CCc1n(C(c2ccccc2)c2cc3ccccc3o2)cc[n+]1CC(=O)c1ccc(F)cc1 (configuration not stated) | 10.9 | 7.36 | > 40 | 2.38 | 13.8 | – | –
CCCC[n+]1ccn(C(c2ccccc2)c2cc3ccccc3o2)c1C (configuration not stated) | > 40 | > 40 | > 40 | > 40 | > 40 | – | –
COc1ccc(C(=O)C[n+]2ccn(C(c3ccccc3)c3cc4ccccc4o3)c2C)cc1 (configuration not stated) | 5.29 | 8 | 14.4 | 1.65 | 9.84 | – | –
CCc1nccn1C(c1ccccc1)c1cc2ccccc2o1 (configuration not stated) | > 40 | > 40 | > 40 | > 40 | > 40 | – | –
Cc1n(C(c2ccccc2)c2cc3ccccc3o2)cc[n+]1CC(=O)c1ccc(Br)cc1 (configuration not stated) | 11.1 | 26.1 | 14.5 | 3.3 | 15.2 | – | –
O=C(C[n+]1cn(C(c2ccccc2)c2cc3ccccc3o2)c2ccccc21)c1ccc(O)cc1 (configuration not stated) | > 40 | > 40 | > 40 | > 40 | > 40 | – | –
CCCC[n+]1cn(C(c2ccccc2)c2cc3ccccc3o2)c2ccccc21 (configuration not stated) | 7.03 | 12.3 | 29.3 | 2.87 | 15.4 | – | –
CCc1n(C(c2ccccc2)c2cc3ccccc3o2)cc[n+]1Cc1ccccc1 (configuration not stated) | 7.14 | 6.52 | 3.75 | 2.06 | 5.24 | – | –
CCc1n(C(c2ccccc2)c2cc3ccccc3o2)cc[n+]1CC(=O)c1ccccc1 (configuration not stated) | 10.6 | 13.7 | 19.1 | 2.64 | 14 | – | –
c1ccc(C(c2cc3ccccc3o2)n2cnc3ccccc32)cc1 (configuration not stated) | > 40 | > 40 | > 40 | > 40 | > 40 | – | –
